For 13 compounds, Ki results are on record in patent publication US20230295200A1 (REGENTS OF THE UNIVERSITY OF MICHIGAN, priority 2022, published 2023).

One test has as its target T1, STAT6 protein (Homo sapiens, UniProt P42226).
T1 sequence (P42226 1-847): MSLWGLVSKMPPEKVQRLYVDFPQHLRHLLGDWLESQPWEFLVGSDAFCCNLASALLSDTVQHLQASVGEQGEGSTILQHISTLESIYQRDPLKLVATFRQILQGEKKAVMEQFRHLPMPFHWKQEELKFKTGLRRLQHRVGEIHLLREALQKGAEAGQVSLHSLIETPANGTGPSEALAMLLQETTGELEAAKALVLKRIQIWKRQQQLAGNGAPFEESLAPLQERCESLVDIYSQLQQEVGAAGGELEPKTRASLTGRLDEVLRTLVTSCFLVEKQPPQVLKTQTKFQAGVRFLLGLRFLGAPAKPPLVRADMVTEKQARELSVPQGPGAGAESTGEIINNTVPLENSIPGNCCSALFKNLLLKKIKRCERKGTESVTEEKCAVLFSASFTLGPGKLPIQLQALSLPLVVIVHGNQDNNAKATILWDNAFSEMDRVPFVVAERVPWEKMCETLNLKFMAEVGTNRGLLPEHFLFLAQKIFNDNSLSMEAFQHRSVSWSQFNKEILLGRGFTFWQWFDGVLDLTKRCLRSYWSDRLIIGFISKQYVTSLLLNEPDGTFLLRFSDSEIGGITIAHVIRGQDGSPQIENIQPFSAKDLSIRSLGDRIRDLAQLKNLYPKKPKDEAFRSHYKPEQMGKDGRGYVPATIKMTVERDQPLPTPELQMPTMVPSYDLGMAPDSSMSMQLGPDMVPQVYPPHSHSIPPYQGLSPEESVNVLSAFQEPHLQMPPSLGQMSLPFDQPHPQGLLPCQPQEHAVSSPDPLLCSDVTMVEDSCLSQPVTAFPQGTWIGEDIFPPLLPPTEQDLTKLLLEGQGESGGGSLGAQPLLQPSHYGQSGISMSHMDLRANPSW
The experiment in a line: Fluorescence polarization (FP) binding assay, STAT6. As to conditions: FP competition, 5 nM fluorescein-labeled tracer, 200 nM protein, PBS pH7.4; read-out: Binding STAT6. A digest of the protocol: (§1)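 Each well holds 200 nM STAT5 and/or STAT6 with 5 nM fluorescent tracer in PBS pH 7.4 (0.01% BGG, 0.01% Tween-20, 2 mM DTT). Binding reaches equilibrium over 1 h at room temperature after brief shaking, and polarization data are fitted nonlinearly.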
(In general: Polarisation of emitted light reports the rotation of a fluorescent probe.)

In a further test the target is T2, STAT5A (Homo sapiens, UniProt P42229).
T2 sequence (P42229 1-794): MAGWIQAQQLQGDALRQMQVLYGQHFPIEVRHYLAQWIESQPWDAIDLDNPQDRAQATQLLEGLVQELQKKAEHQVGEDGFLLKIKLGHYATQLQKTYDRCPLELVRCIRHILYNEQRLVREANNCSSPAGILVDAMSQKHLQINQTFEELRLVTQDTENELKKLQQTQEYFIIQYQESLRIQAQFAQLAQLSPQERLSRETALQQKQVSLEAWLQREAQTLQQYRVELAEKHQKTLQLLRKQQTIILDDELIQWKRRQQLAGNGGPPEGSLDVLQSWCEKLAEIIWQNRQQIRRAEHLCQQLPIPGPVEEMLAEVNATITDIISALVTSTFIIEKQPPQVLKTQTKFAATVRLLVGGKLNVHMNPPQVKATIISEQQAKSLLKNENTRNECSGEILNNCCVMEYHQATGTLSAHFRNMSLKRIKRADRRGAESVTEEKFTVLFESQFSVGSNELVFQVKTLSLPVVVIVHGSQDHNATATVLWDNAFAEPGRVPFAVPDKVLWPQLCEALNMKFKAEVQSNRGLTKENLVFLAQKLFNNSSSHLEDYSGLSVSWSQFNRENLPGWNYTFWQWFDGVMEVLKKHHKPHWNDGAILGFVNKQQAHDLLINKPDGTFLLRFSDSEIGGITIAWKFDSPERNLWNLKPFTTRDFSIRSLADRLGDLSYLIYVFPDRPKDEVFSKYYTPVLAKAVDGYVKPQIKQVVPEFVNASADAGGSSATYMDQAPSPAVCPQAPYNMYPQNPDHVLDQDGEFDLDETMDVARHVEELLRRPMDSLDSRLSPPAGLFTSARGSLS
The experiment in a line: Fluorescence polarization (FP) binding assay, STAT5A. Conditions: FP competition, 5 nM fluorescein-labeled tracer, 200 nM protein, PBS pH7.4. A digest of the protocol: as §1

On to `CN(Cc1ccc(Br)cc1)C(=O)[C@@H]1CCCN1C(=O)[C@@H](NC(=O)c1cc2cc(C(F)(F)P(=O)(O)O)ccc2s1)C(C)(C)C` [Compound 74, ((2-(((S)-1-((S)-2-((4-bromobenzyl)(methyl)carbamoyl)pyrrolidin-1-yl)-3,3-dimethyl-1-oxobutan-2-yl)carbamoyl)benzo[b]thiophen-5-yl)difluoromethyl)phosphonic acid], for which the Ki is 1 to 10 µM on STAT6 protein and > 10 µM at STAT5A.
Taken in the same sequence, the figures for `CC(C)(C)[C@H](NC(=O)c1cc2cc(C(F)(F)P(=O)(O)O)ccc2s1)C(=O)N1CCC[C@H]1C(=O)N(Cc1ccccc1)C1CCCCC1` [Compound 75, ((2-(((S)-1-((S)-2-(benzyl(cyclohexyl)carbamoyl)pyrrolidin-1-yl)-3,3-dimethyl-1-oxobutan-2-yl)carbamoyl)benzo[b]thiophen-5-yl)difluoromethyl)phosphonic acid] were 1 to 10 µM and > 10 µM.
As to `CC(C)(C)[C@H](NC(=O)c1cc2cc(C(F)(F)P(=O)(O)O)ccc2s1)C(=O)N1CCC[C@H]1C(=O)N(Cc1ccccc1)C1CCOCC1` [Compound 76, ((2-(((S)-1-((S)-2-(benzyl(tetrahydro-2H-pyran-4-yl)carbamoyl)pyrrolidin-1-yl)-3,3-dimethyl-1-oxobutan-2-yl)carbamoyl)benzo[b]thiophen-5-yl)difluoromethyl)phosphonic acid], the Ki on STAT6 protein was 1 to 10 µM; on STAT5A, > 10 µM.
Taken in the same sequence, the figures for `CC(C)(C)[C@H](NC(=O)c1cc2cc(C(F)(F)P(=O)(O)O)ccc2s1)C(=O)N1CCC[C@H]1C(=O)N1CC[C@H]2CCN[C@H]2C1` [Compound 78, ((2-(((S)-3,3-dimethyl-1-((S)-2-((3aR,7aR)-octahydro-1H-pyrrolo[2,3-c]pyridine-6-carbonyl)pyrrolidin-1-yl)-1-oxobutan-2-yl)carbamoyl)benzo[b]thiophen-5-yl)difluoromethyl)phosphonic acid] were > 10 µM and > 10 µM.
In the case of `CC(C)(C)[C@H](NC(=O)c1cc2cc(C(F)(F)P(=O)(O)O)ccc2s1)C(=O)N1CCC[C@H]1C(=O)N1CC[C@@H]2CNC[C@@H]21` [Compound 79, ((2-(((S)-3,3-dimethyl-1-((S)-2-((3aR,6aR)-octahydropyrrolo[3,4-b]pyrrole-1-carbonyl)pyrrolidin-1-yl)-1-oxobutan-2-yl)carbamoyl)benzo[b]thiophen-5-yl)difluoromethyl)phosphonic acid], the Ki on STAT6 protein and at STAT5A was > 10 µM throughout.
In the case of `CC(C)(C)[C@H](NC(=O)c1cc2cc(C(F)(F)P(=O)(O)O)ccc2s1)C(=O)N1CCC[C@H]1C(=O)N1C[C@H]2CCN[C@H]2C1` [Compound 80, ((2-(((S)-3,3-dimethyl-1-((S)-2-((3aR,6aR)-octahydropyrrolo[3,4-b]pyrrole-5-carbonyl)pyrrolidin-1-yl)-1-oxobutan-2-yl)carbamoyl)benzo[b]thiophen-5-yl)difluoromethyl)phosphonic acid], the Ki on STAT6 protein and on STAT5A was > 10 µM in each case.
For the compound `CC(=O)N1CC[C@@H]2CCN(C(=O)[C@@H]3CCCN3C(=O)[C@@H](NC(=O)c3cc4cc(C(F)(F)P(=O)(O)O)ccc4s3)C(C)(C)C)C[C@@H]21` [Compound 81, ((2-(((S)-1-((S)-2-((3aS,7aR)-1-acetyloctahydro-1H-pyrrolo[2,3-c]pyridine-6-carbonyl)pyrrolidin-1-yl)-3,3-dimethyl-1-oxobutan-2-yl)carbamoyl)benzo[b]thiophen-5-yl)difluoromethyl)phosphonic acid], the Ki at STAT6 protein and on STAT5A was > 10 µM each time.
On to `CCCCC(=O)N1CC[C@@H]2CCN(C(=O)[C@@H]3CCCN3C(=O)[C@@H](NC(=O)c3cc4cc(C(F)(F)P(=O)(O)O)ccc4s3)C(C)(C)C)C[C@@H]21` [Compound 82, ((2-(((S)-3,3-dimethyl-1-oxo-1-((S)-2-((3aS,7aR)-1-pentanoyloctahydro-1H-pyrrolo[2,3-c]pyridine-6-carbonyl)pyrrolidin-1-yl)butan-2-yl)carbamoyl)benzo[b]thiophen-5-yl)difluoromethyl)phosphonic acid], for which the Ki on STAT6 protein and at STAT5A was > 10 µM each time.
In the case of `CC(C)(C)[C@H](NC(=O)c1cc2cc(C(F)(F)P(=O)(O)O)ccc2s1)C(=O)N1CCC[C@H]1C(=O)N1CC[C@H]2CCN(C(=O)c3ccc(F)cc3)[C@H]2C1` [Compound 83, (difluoro(2-(((S)-1-((S)-2-((3aS,7aR)-1-(4-fluorobenzoyl)octahydro-1H-pyrrolo[2,3-c]pyridine-6-carbonyl)pyrrolidin-1-yl)-3,3-dimethyl-1-oxobutan-2-yl)carbamoyl)benzo[b]thiophen-5-yl)methyl)phosphonic acid], the Ki at STAT6 protein and at STAT5A was > 10 µM in each case.
Take `CC(=O)N1C[C@H]2CCN(C(=O)[C@@H]3CCCN3C(=O)[C@@H](NC(=O)c3cc4cc(C(F)(F)P(=O)(O)O)ccc4s3)C(C)(C)C)[C@H]2C1` [Compound 84, ((2-(((S)-1-((S)-2-((3aR,6aR)-5-acetyloctahydropyrrolo[3,4-b]pyrrole-1-carbonyl)pyrrolidin-1-yl)-3,3-dimethyl-1-oxobutan-2-yl)carbamoyl)benzo[b]thiophen-5-yl)difluoromethyl)phosphonic acid]: the Ki on STAT6 protein and on STAT5A was > 10 µM each time.
In the case of `CCCCC(=O)N1C[C@H]2CCN(C(=O)[C@@H]3CCCN3C(=O)[C@@H](NC(=O)c3cc4cc(C(F)(F)P(=O)(O)O)ccc4s3)C(C)(C)C)[C@H]2C1` [Compound 85, ((2-(((S)-3,3-dimethyl-1-oxo-1-((S)-2-((3aR,6aR)-5-pentanoyloctahydropyrrolo[3,4-b]pyrrole-1-carbonyl)pyrrolidin-1-yl)butan-2-yl)carbamoyl)benzo[b]thiophen-5-yl)difluoromethyl)phosphonic acid], the Ki on STAT6 protein and at STAT5A was > 10 µM throughout.
Take `CC(C)(C)[C@H](NC(=O)c1cc2cc(C(F)(F)P(=O)(O)O)ccc2s1)C(=O)N1CCC[C@H]1C(=O)N1CC[C@@H]2CN(C(=O)c3ccc(F)cc3)C[C@@H]21` [Compound 86, (difluoro(2-(((S)-1-((S)-2-((3aR,6aR)-5-(4-fluorobenzoyl)octahydropyrrolo[3,4-b]pyrrole-1-carbonyl)pyrrolidin-1-yl)-3,3-dimethyl-1-oxobutan-2-yl)carbamoyl)benzo[b]thiophen-5-yl)methyl)phosphonic acid]: the Ki on STAT6 protein and at STAT5A was > 10 µM throughout.
Turning to `CC(=O)N1CC[C@@H]2CN(C(=O)[C@@H]3CCCN3C(=O)[C@@H](NC(=O)c3cc4cc(C(F)(F)P(=O)(O)O)ccc4s3)C(C)(C)C)C[C@@H]21` [Compound 87, ((2-(((S)-1-((S)-2-((3aR,6aR)-1-acetyloctahydropyrrolo[3,4-b]pyrrole-5-carbonyl)pyrrolidin-1-yl)-3,3-dimethyl-1-oxobutan-2-yl)carbamoyl)benzo[b]thiophen-5-yl)difluoromethyl)phosphonic acid], the Ki at STAT6 protein and at STAT5A was > 10 µM each time.
